# Assay results published in ChEMBL document CHEMBL1135140, “Pyridazines. Part 28: 5-alkylidene-6-phenyl-3(2H)-pyridazinones, a new family of platelet aggregation inhibitors” (Bioorg Med Chem Lett, 2002).
# pIC50: −log10 of the molar value.
# Test: Tested for anti-platelet activity by turbidimetric method using thrombin as agonist in washed platelet
# Type: functional
row,pIC50,SMILES
1,4.35,COC(=O)C(=Cc1cc(=O)[nH]nc1-c1ccccc1)C(=O)OC
2,4.60,COC(=O)/C(=C/c1cc(O)nnc1-c1ccccc1)C(C)=O

# The next lines start with the compound.
row,SMILES,pIC50
1,CCOC(=O)C(=Cc1cc(=O)[nH]nc1-c1ccccc1)C(=O)OCC,4.70
2,Clc1ccccc1CN1CCc2sccc2C1 [TICLOPIDINE],2.81
3,O=C1C(CC[S+]([O-])c2ccccc2)C(=O)N(c2ccccc2)N1c1ccccc1 (stereo not given) [SULFINPYRAZONE],3.16
